Where a SMILES comes first, the peptide text is derived from it.

For this test, the system named is E. coli ATCC 25922, Salmonella Enteritidis, S. aureus ATCC 29213. The test is described as follows: Broth microdilution, panel result (at least one / all strains), Example 2. The format is cell-based. Also on record: key to inhibitory activity (asterisk): *Indicates inhibitory activity. To be noted: Table 14; against at least one of E. coli ATCC 25922, Salmonella Enteritidis, S. aureus ATCC 29213. The method, then:
The antimicrobial activity of the putative AMPs was determined by a broth microdilution assay as described by the Clinical and Laboratory Standards Institute, with the published adaptations for testing of cationic peptides. Escherichia coli 25922 and Staphylococcus aureus 29213 isolates were purchased from the American Type Culture Collection (ATCC; Manassas, VA, USA). A human clinical isolate of Salmonella enterica serovar Enteritidis was provided by the BC Centre for Disease Control. Bacteria from stocks stored at −80° C. were streaked onto nonselective Columbia blood agar with 5% sheep blood (Oxoid) and incubated overnight at 37° C. Next, 2-4 colonies were streaked onto a new agar plate to ensure uniform health of colonies used in the broth microdilution assay. Isolated colonies were suspended in MHB and the optical density was measured with a spectrophotometer to create an initial inoculum concentration of approximately 1×10^8 cfu/mL. The inoculum was diluted 1:250 to a final concentration of 2-8×10^5 cfu/mL, which was confirmed by performing a Total Viability Count (TVC). The TVC consisted of plating a 1:1000 dilution of the final inoculum on nonselective media and was also used to confirm the health and purity of the inoculum in each trial.
Lyophilized 80 μg peptide aliquots synthesized by GenScript (Piscataway, NJ, USA) were resuspended to 1.28 mg/mL with UltraPure water (Thermo Fisher Scientific, Waltham, MA, USA) and serially diluted in polypropylene 96-well microtiter plates (Greiner Bio-One #650261, Kremsmunster, Austria) from 128 down to 0.5 μg/mL. Two columns per plate were reserved for growth and sterility controls. Inoculum was added to the wells containing the peptide and the growth control. Plates were incubated for 20-24 h at 37° C. The minimum inhibitory concentration (MIC) was determined as the lowest peptide concentration where there was no visible bacterial growth.
Regarding `CC[C@H](C)[C@H](NC(=O)[C@H](C)NC(=O)[C@H](CCCNC(=N)N)NC(=O)[C@@H](N)CCCNC(=N)N)C(=O)N[C@@H](Cc1ccccc1)C(=O)N[C@@H](C)C(=O)N[C@@H](CO)C(=O)N[C@H](C(=O)N[C@@H](CCCNC(=N)N)C(=O)NCC(=O)N[C@@H](Cc1ccc(O)cc1)C(=O)N[C@@H](CC(C)C)C(=O)NCC(=O)N[C@@H](CC(C)C)C(=O)N[C@@H](CCCNC(=N)N)C(=O)N[C@@H](CCCCN)C(=O)N[C@@H](CCCNC(=N)N)C(=O)O)[C@@H](C)CC` [MyGu1, RRAIFASIRGYLGLRKR] (H-RRAIFASIRGYLGLRKR-OH; N-terminus and C-terminus assumed), the “inhibitory activity (asterisk)” value is 881.* RRAIFASIRGYLGLRKR.
For `CC[C@H](C)[C@H](NC(=O)[C@H](CCCCN)NC(=O)[C@H](CS)NC(=O)[C@H](CCCCN)NC(=O)[C@H](CC(C)C)NC(=O)[C@H](CC(N)=O)NC(=O)[C@H](CC(=O)O)NC(=O)[C@H](CC(C)C)NC(=O)[C@H](CC(C)C)NC(=O)[C@@H](NC(=O)[C@@H](NC(=O)[C@H](C)NC(=O)[C@@H](NC(=O)[C@H](CC(N)=O)NC(=O)[C@H](CCCCN)NC(=O)[C@H](C)NC(=O)[C@@H](NC(=O)[C@H](CC(N)=O)NC(=O)[C@H](CCCCN)NC(=O)[C@H](C)NC(=O)[C@@H](NC(=O)[C@H](CC(=O)O)NC(=O)[C@H](CCSC)NC(=O)[C@H](Cc1ccccc1)NC(=O)CN)[C@@H](C)O)C(C)C)C(C)C)C(C)C)[C@@H](C)O)C(=O)N[C@H](C(=O)N[C@@H](CCCCN)C(=O)N[C@@H](C)C(=O)N[C@@H](CS)C(=O)O)[C@@H](C)O` [OdMa13] (H-GFMDTAKNVAKNVAVTLLDNLKCKITKAC-OH; N-terminus and C-terminus assumed), the “inhibitory activity (asterisk)” value is recorded as 1095.* GFMDTAKNVAKNVAVTLLDNLKCKITKAC.
For `CC[C@H](C)[C@H](NC(=O)CNC(=O)[C@H](CCCNC(=N)N)NC(=O)[C@H](CCCCN)NC(=O)[C@H](CCCCN)NC(=O)[C@H](CCCNC(=N)N)NC(=O)[C@@H]1CCCN1C(=O)[C@@H](NC(=O)[C@H](CCSC)NC(=O)[C@H](CC(C)C)NC(=O)[C@@H](N)CCCCN)[C@@H](C)CC)C(=O)N[C@@H](Cc1ccccc1)C(=O)NCC(=O)NCC(=O)N[C@@H](CC(C)C)C(=O)N[C@@H](CC(C)C)C(=O)N[C@@H](CCCCN)C(=O)N[C@H](C(=O)NCC(=O)N[C@@H](CCCCN)C(=O)N[C@@H](CCCCN)C(=O)N[C@H](C(=O)N[C@@H](C)C(=O)N[C@@H](CS)C(=O)NCC(=O)N[C@@H](CC(C)C)C(=O)N[C@@H](CO)C(=O)NCC(=O)N[C@@H](CC(C)C)C(=O)N[C@@H](CS)C(=O)O)[C@@H](C)CC)C(C)C` [OdTo4] (H-KLMIPRKKRGIFGGLLKVGKKIACGLSGLC-OH; N-terminus and C-terminus assumed) the value was 190.* KLMIPRKKRGIFGGLLKVGKKIACGLSGLC.
On to `CC(C)C[C@H](NC(=O)CN)C(=O)N[C@@H](CC(C)C)C(=O)NCC(=O)N[C@@H](CCCCN)C(=O)N[C@H](C(=O)N[C@@H](CC(C)C)C(=O)NCC(=O)N[C@H](C(=O)NCC(=O)N[C@@H](CCCCN)C(=O)N[C@@H](CCCCN)C(=O)N[C@H](C(=O)N[C@@H](CC(C)C)C(=O)N[C@@H](CS)C(=O)NCC(=O)N[C@H](C(=O)N[C@H](C(=O)NCC(=O)N[C@@H](CCCNC(=N)N)C(=O)N[C@@H](CCC(=O)O)C(=O)N[C@@H](CCCNC(=N)N)C(=O)N[C@@H](CS)C(=O)N[C@@H](CCC(N)=O)C(=O)O)[C@@H](C)O)C(C)C)C(C)C)C(C)C)C(C)C` [PeNi5] (H-GLLGKVLGVGKKVLCGVTGRERCQ-OH; N-terminus and C-terminus assumed), for which the “inhibitory activity (asterisk)” value is 359.* GLLGKVLGVGKKVLCGVTGRERCQ.

These data come from patent publication US20260242416A1, “ANTIMICROBIAL PEPTIDES” (priority 2023, published 2026).
